Entries after “also recorded” stand apart in the source; their conditions may differ.
Legend:
HES cells [1] = assay: Seeding and colony formation of individualized HES cells in 96-well plates; assay type: cell-based, human
Excerpt: For this purpose however the inventors plated 16,000 cells per well, which is a 5-fold higher seeding density, than in the regular propagation and maintenance of undifferentiated HES cells with the automated procedure.

HES cells [2] = assay: Survival of HES cells after trypsin treatment, individualized and seeded in TeSR medium; assay type: cell-based, human; details: 0.1% trypsin; seeding onto Matrigel coated plates in TeSR medium
Excerpt: The inventors utilized the system described in Example 1 and developed procedures for passaging of HES cells that were based on simple liquid handling protocols. Recent innovations in splitting techniques allowed for efficient automation of this otherwise demanding manual procedure. Since HES cells require cell-cell contacts for survival in TeSR media, they needed to be seeded in clumps which required scraping of attached cells, a procedure which would be very hard to automate.
For automated passaging, the following procedure was developed: After retrieval of the mother plate from the incubator, the wash tool removes the spent media as described in aim 1. The 8-channel 200 μl pipetting tool MP200 is used to add […] of trypsin (0.1%). […] The cells are washed off the plate surface and mixed using the 8-channel MP200 tool by repetitive dispensing and aspiration. Cells are then dispensed to the daughter plates using the MP200 tool. The cells are then seeded 1 to 32 onto precoated Matrigel plates loaded from the stacker to the Biomek2000. […] The total surface area of the initially used Omnitray turned out to be too large for the throughput of the system at the stage of the next split once the inventors tested methods for passaging HES cells in aim 2. […]

HES cells [3] = details: Watanabe et al. Nat Biotech (2007); cited from earlier work

Row | Compound | seeding of individualized HES cells in 96-well plates (HES cells [1]; 96-well plates) | colony formation of HES cells from individualized cells (HES cells [1]; TeSR1 media) | survival of HES cells after trypsin treatment (HES cells [2]) | ability to maintain HES cell growth (HES cells [3])
1 | Cc1cncc2cccc(S(=O)(=O)N3CCCNCC3C)c12 (stereo in doubt) [H-1152, (S)-(+)-2-Methyl-1-[(4-methyl-5-isoquinolinyl)sulfonyl]homopiperazine] | allows for very efficient seeding of individualized HES cells in 96-well plates; also recorded: allows for very efficient seeding of individualized human ES cells in 96-well plates | actively increased colony formation | allow the survival of HES cells after trypsin treatment | 
2 | O=S(=O)(c1cccc2cnccc12)N1CCNCC1 [HA-100] |  |  | allow the survival of HES cells after trypsin treatment | supports the ability of HA-100 to maintain HES cell growth
